Laboratory results from patent US8039505B2, “Compounds for modulating T-cells” (University of Utah Research Foundation, priority 2007, dated 2011).
“And” between values parts separate entries of the source, which are not always exact repeats. Identical values can stand only once.

How the values were obtained:
[1] = Pharmacokinetics in male Swiss Albino mouse, intravenous and oral (LC-MS/MS of plasma); assay type: in vivo; conditions: for Individual plasma concentration: individual mice; for Mean plasma concentration: N = 3
Description: The pharmacokinetics of 1H-indole-3-carbaldehyde quinolin-8-ylhydrazone (Compound C3) was evaluated following intravenous (3 mg/kg) and oral (15 mg/kg) solution administration of 1H-indole-3-carbaldehyde quinolin-8-ylhydrazone in male Swiss Albino mouse. The effect of the Test Item, 1H-indole-3-carbaldehyde quinolin-8-ylhydrazone on complete blood count (CBC) was also evaluated. Pharmacokinetic phase consisted of two groups, Group 1 and Group 2. Animals in Group 1 were given intravenous bolus dose in a vehicle containing 5% N,N-dimethylacetamide, 5% CREMOPHOR™ EL and 90% Dextrose solution (5% w/v) and those in Group 2 were given oral solution dose in a vehicle, the composition of which was same as that of intravenous formulation. In addition, the effect of Test Item on complete blood count was evaluated following intravenous and oral dose administration along with its vehicle controls. A total of four groups were used each with 6 mice.
From the pharmacokinetic group, predose samples were collected from 3 animals in each group. Following dose administration terminal blood samples were collected at each of the following time points (in triplicate): 0.083 (only for intravenous), 0.25, 0.5, 1, 2, 4, 8, 12 and 24 hours. At each time point, approximately 500 μL of whole blood was withdrawn from the retro orbital sinus and collected in labeled tubes containing dipotassium EDTA as anticoagulant (20 μL of 200 mM K2 EDTA solution per mL of blood). Plasma was separated by centrifuging the whole blood at about 2500 g for 10 minutes at 4° C. within 1 h of sample collection. Separated plasma was stored below minus 50° C. until bioanalysis. A sensitive LC-MS/MS method was used for the quantitation of 1H-indole-3-carbaldehyde quinolin-8-ylhydrazone. The lower limit of quantitation was 1.04 ng/mL. For CBC evaluation, approximately 500 μL of blood was collected in labeled tubes containing dipotassium EDTA as anticoagulant (10 […]/mL of blood) after 48 h of dose administration from all animals.
A total of 57 mice were divided into an intravenous dose group of 30 mice (Group 1) and oral dose group of 27 mice (Group 2). Animals in Group 1 received intravenous bolus dose via tail vein at 3 mg/kg and animals in Group 2 received oral solution dose via gavage at 15 mg/kg. Three animals were administered the dose for each time point (intravenous: 10 time points; Oral: 9 time points). Terminal blood samples were collected from each mouse under light ether anesthesia and plasma was separated.
Animals in Group 1 were administered an intravenous bolus dose via the tail vein (dosing volume: 6 mL/kg). Animals in Group 2 received oral dose by gavage with an oral dosing needle (dosing volume: 10 mL/kg). Animals in the CBC evaluation group were treated same as above except the animals in control group received vehicle instead of formulation.
Pharmacokinetic group: Predose samples were collected from 3 animals in each group. Following dose administration terminal blood samples were collected at each of the following time points (in triplicate): 0.083 (only for intravenous), 0.25, 0.5, 1, 2, 4, 8, 12 and 24 hours. For each time point, approximately 500 μL of whole blood was withdrawn from the retro orbital sinus and collected in labeled tubes containing dipotassium EDTA as anticoagulant (20 μL of 200 mM K2 EDTA solution per mL of blood). Plasma was separated by centrifuging the whole blood at about 2500 g for 10 minutes at 4° C. within 1 h of sample collection. Separated plasma was stored below minus 50° C. until bioanalysis.
An LC-MS/MS method was developed and employed for the quantitation of 1H-indole-3-carbaldehyde quinolin-8-ylhydrazone in the mouse plasma samples. The samples were prepared for analysis following liquid-liquid extraction using amodiaquin as internal standard. The lower limit of quantitation was 1.04 ng/mL.
Pharmacokinetic parameters were calculated using non-compartmental analysis tool of WINNONLIN™ Enterprise software (Version 5.1.1). […]

[2] = 14-day twice daily gavage in healthy CD-1 male mice; assay type: in vivo; conditions: gavage 50, 15 and 5 mg/kg twice per day, 14 days
Description: Healthy CD-1 male mice were also gavage-fed with compound 3 at concentrations of 50 mg/kg, 15 mg/kg and 5 mg/kg twice per day. […] Hematological, biochemical, immunological and pathological specimen are currently being evaluated.

[3] = mouse plasma, IV 3 mg/kg, 0.25 h samples, listed as ICQH, 3 mg/kg
[4] = mouse, intravenous bolus 3 mg/kg, 24 h, BLQ = below LLOQ 1.04 ng/mL
[5] = mouse, oral solution 15 mg/kg, 24 h, BLQ = below LLOQ 1.04 ng/mL

Structure (SMILES): C(=NNc1cccc2cccnc12)c1c[nH]c2ccccc12 [Compound C3, 1H-indole-3-carbaldehyde quinolin-8-ylhydrazone]
- Initial conc. (repeat analysis) [1, 3]: 132.16 ng/mL
- Repeated conc. (repeat analysis) [1, 3]: 225.35 ng/mL
- Clearance as share of liver blood flow ([1]; mouse, IV 3 mg/kg): about 60 % of liver blood flow
- Volume of distribution ([1]; mouse, IV 3 mg/kg): 4.28 Ukg
- Volume of distribution relative to total body water ([1]; mouse, IV 3 mg/kg): about 6 times of total body water
- Time till which plasma concentrations were quantifiable ([1]; mouse, following both intravenous (3 mg/kg) and oral (15 mg/kg) administration): 12 h
- Individual plasma concentration ([1]; mouse, intravenous bolus 3 mg/kg, 0.083 h, LLOQ 1.04 ng/mL, 3 mg/kg): 2253.61 ng/mL and 1125.73 ng/mL and 75.62 b ng/mL
- Individual plasma concentration ([1]; mouse, intravenous bolus 3 mg/kg, 0.083 h, LLOQ 1.04 ng/mL, listed as ICQH, 3 mg/kg): 2253.61 ng/mL and 1125.73 ng/mL and 75.62 ng/mL
- Individual plasma concentration ([1]; mouse, intravenous bolus 3 mg/kg, 0.25 h, LLOQ 1.04 ng/mL, 3 mg/kg): 307.05 ng/mL and 225.35 ng/mL
- Individual plasma concentration ([1]; mouse, intravenous bolus 3 mg/kg, 0.25 h, LLOQ 1.04 ng/mL, listed as ICQH, 3 mg/kg): 199.60 ng/mL and 307.05 ng/mL and 225.35 ng/mL
- Individual plasma concentration ([1]; mouse, intravenous bolus 3 mg/kg, 0.5 h, LLOQ 1.04 ng/mL, 3 mg/kg): 388.25 ng/mL and 148.82 ng/mL and 339.56 ng/mL
- Individual plasma concentration ([1]; mouse, intravenous bolus 3 mg/kg, 0.5 h, LLOQ 1.04 ng/mL, listed as ICQH, 3 mg/kg): 388.25 ng/mL and 148.82 ng/mL and 339.56 ng/mL
- Individual plasma concentration ([1]; mouse, intravenous bolus 3 mg/kg, 1 h, LLOQ 1.04 ng/mL, 3 mg/kg): 184.80 ng/mL and 140.18 ng/mL
- Individual plasma concentration ([1]; mouse, intravenous bolus 3 mg/kg, 1 h, LLOQ 1.04 ng/mL, listed as ICQH, 3 mg/kg): 184.80 ng/mL and 116.46 ng/mL and 140.18 ng/mL
- Individual plasma concentration ([1]; mouse, intravenous bolus 3 mg/kg, 2 h, LLOQ 1.04 ng/mL, 3 mg/kg): 76.60 ng/mL and 47.02 ng/mL
- Individual plasma concentration ([1]; mouse, intravenous bolus 3 mg/kg, 2 h, LLOQ 1.04 ng/mL, listed as ICQH, 3 mg/kg): 71.88 ng/mL and 76.60 ng/mL and 47.02 ng/mL
- Individual plasma concentration ([1]; mouse, intravenous bolus 3 mg/kg, 4 h, LLOQ 1.04 ng/mL, 3 mg/kg): 27.25 ng/mL and 38.13 ng/mL
- Individual plasma concentration ([1]; mouse, intravenous bolus 3 mg/kg, 4 h, LLOQ 1.04 ng/mL, listed as ICQH, 3 mg/kg): 42.37 ng/mL and 27.25 ng/mL and 38.13 ng/mL
- Individual plasma concentration ([1]; mouse, intravenous bolus 3 mg/kg, 8 h, LLOQ 1.04 ng/mL, 3 mg/kg): 5.65 ng/mL and 11.10 ng/mL
- Individual plasma concentration ([1]; mouse, intravenous bolus 3 mg/kg, 8 h, LLOQ 1.04 ng/mL, listed as ICQH, 3 mg/kg): 10.11 ng/mL and 5.65 ng/mL and 11.10 ng/mL
- Individual plasma concentration ([1]; mouse, intravenous bolus 3 mg/kg, 12 h, BLQ = below LLOQ 1.04 ng/mL, 3 mg/kg): 2.20 ng/mL and BLQ
- Individual plasma concentration ([1]; mouse, intravenous bolus 3 mg/kg, 12 h, BLQ = below LLOQ 1.04 ng/mL, listed as ICQH, 3 mg/kg): 1.68 ng/mL and 2.20 ng/mL and BLQ
- Mean plasma concentration [1, 4]: BLQ
- Individual plasma concentration [1, 4]: BLQ
- Time of maximum concentration post-dose ([1]; mouse, oral solution 15 mg/kg): 1.0 h
- Individual plasma concentration ([1]; mouse, oral solution 15 mg/kg, 0.25 h, LLOQ 1.04 ng/mL): 53.05 ng/mL and 113.38 ng/mL and 254.20 ng/mL
- Individual plasma concentration ([1]; mouse, oral solution 15 mg/kg, 0.25 h, LLOQ 1.04 ng/mL, listed as ICQH): 53.05 ng/mL and 113.38 ng/mL and 254.20 ng/mL
- Individual plasma concentration ([1]; mouse, oral solution 15 mg/kg, 0.5 h, LLOQ 1.04 ng/mL): 96.22 ng/mL and 72.56 ng/mL and 273.76 ng/mL
- Individual plasma concentration ([1]; mouse, oral solution 15 mg/kg, 0.5 h, LLOQ 1.04 ng/mL, listed as ICQH): 96.22 ng/mL and 72.56 ng/mL and 273.76 ng/mL
- Individual plasma concentration ([1]; mouse, oral solution 15 mg/kg, 1 h, LLOQ 1.04 ng/mL): 143.63 ng/mL and 32.21 ng/mL and 422.48 ng/mL
- Individual plasma concentration ([1]; mouse, oral solution 15 mg/kg, 1 h, LLOQ 1.04 ng/mL, listed as ICQH): 143.63 ng/mL and 32.21 ng/mL and 422.48 ng/mL
- Individual plasma concentration ([1]; mouse, oral solution 15 mg/kg, 2 h, LLOQ 1.04 ng/mL): 51.85 ng/mL and 95.13 ng/mL and 142.67 ng/mL
- Individual plasma concentration ([1]; mouse, oral solution 15 mg/kg, 2 h, LLOQ 1.04 ng/mL, listed as ICQH): 51.85 ng/mL and 95.13 ng/mL and 142.67 ng/mL
- Individual plasma concentration ([1]; mouse, oral solution 15 mg/kg, 4 h, LLOQ 1.04 ng/mL): 185.50 ng/mL and 87.82 ng/mL and 164.88 ng/mL
- Individual plasma concentration ([1]; mouse, oral solution 15 mg/kg, 4 h, LLOQ 1.04 ng/mL, listed as ICQH): 185.50 ng/mL and 87.82 ng/mL and 164.88 ng/mL
- Individual plasma concentration ([1]; mouse, oral solution 15 mg/kg, 8 h, LLOQ 1.04 ng/mL): 71.29 ng/mL and 78.06 ng/mL
- Individual plasma concentration ([1]; mouse, oral solution 15 mg/kg, 8 h, LLOQ 1.04 ng/mL, listed as ICQH): 76.65 ng/mL and 71.29 ng/mL and 78.06 ng/mL
- Individual plasma concentration ([1]; mouse, oral solution 15 mg/kg, 12 h, LLOQ 1.04 ng/mL): 4.05 ng/mL and 11.47 ng/mL and 11.21 ng/mL
- Individual plasma concentration ([1]; mouse, oral solution 15 mg/kg, 12 h, LLOQ 1.04 ng/mL, listed as ICQH): 4.05 ng/mL and 11.47 ng/mL and 11.21 ng/mL
- Mean plasma concentration [1, 5]: BLQ
- Individual plasma concentration [1, 5]: BLQ
- Adverse effects [2]: No adverse effects were observed
